Three molecules from patent publication US20190269629A1, “COMPOSITIONS AND METHODS FOR INHIBITING GROWTH OF ACSL4-OVEREXPRESSING TUMORS” (CONSEJO NACIONAL DE INVESTIGACIONES CIENTÍFICAS Y TÉCNICAS …, priority 2016, published 2019) can be followed below.

What all share (assay type): cell-based, human
In test [1] the test system is MCF-7 Tet-Off empty vector cells. Nature of the test: BrdU cell proliferation assay, MCF-7 Tet-Off empty vector cells. The conditions noted are these: doxorubicin 0.025, 0.050, 0.100 μM or paclitaxel 0.1, 0.2, 0.5 μM, 96 h. The protocol:
(§1) MCF-7 Tet-Off empty vector and MCF-7 Tet-Off/ACSL4 cells were plated at a density of 4000 cells/well in 96-well plates with 10% FBS-supplemented D-MEM and allowed to adhere overnight at 37° C. in a humidified 5% CO2 atmosphere. The medium was then changed to serum-free medium. After 24 h, the cells were switched to 10% FBS-supplemented D-MEM with A. doxorubicin (0.025-0.100 μM) and B. paclitaxel (0.1-0.5 μM), and with doxycycline (0.025 μM) where indicated. After 48 h, cell proliferation was measured by BrdU incorporation assay. Data are presented as inhibition of cell proliferation compared to control cells.
(§2) Cell proliferation assays were measured by the MTT and 5-bromo-2′-deoxyuridine (BrdU) incorporation as previously described (Maloberti P. M. et al., 2010).
Separate experiments were carried out for each one of the tested chemotherapeutic agents. […]
MCF-7 Tet-Off empty vector and MCF-7 Tet-Off/ACSL4 cells were plated at a density of 4000 cells/well in 96-well plates with 10% FBS-supplemented D-MEM medium and allowed to adhere overnight at 37° C. in a humidified, 5% CO2 atmosphere. […] Subsequently, cell proliferation was measured by the bromo-deoxyuridine (BrdU) incorporation assay. […]

Test [2] relates to MCF-7 Tet-Off/ACSL4 cells. Nature of the test: BrdU cell proliferation assay, MCF-7 Tet-Off/ACSL4 cells. The protocol:
as §1, §2
Separate experiments were carried out for each one of the tested chemotherapeutic agents. Each chemotherapeutic agent was first tested alone at the concentrations used, and then in combination with doxycycline, for each of the cell groups: MCF-7 Tet-Off/ACSL4 cells, MCF-7 Tet-Off empty vector cells and doxycycline-treated MCF-7 Tet-Off/ACSL4 cells, the latter is used to specifically override ACSL4 expression.
MCF-7 Tet-Off empty vector and MCF-7 Tet-Off/ACSL4 cells were plated at a density of 4000 cells/well in 96-well plates with 10% FBS-supplemented D-MEM medium and allowed to adhere overnight at 37° C. in a humidified, 5% CO2 atmosphere. The medium was then changed to serum-free medium. After 24 h, the cells were switched to 10% FBS-supplemented D-MEM medium and incubated with doxorubicin at varying (sub-therapeutically effective or non-effective per se) concentrations (0.025, 0.050, 0.100 μM) for 96 h. Subsequently, cell proliferation was measured by the bromo-deoxyuridine (BrdU) incorporation assay.
MCF-7 Tet-Off empty vector and MCF-7 Tet-Off/ACSL4 cells were plated at a density of 4000 cells/well in 96-well plates with 10% FBS-supplemented D-MEM medium and allowed to adhere overnight at 37° C. in a humidified, 5% CO2 atmosphere. The medium was then changed to serum-free medium. After 24 h, the cells were switched to 10% FBS-supplemented D-MEM medium and incubated with paclitaxel at varying (sub-therapeutically effective or non-effective per se) concentrations (0.1, 0.2, 0.5 μM) for 96 h. Subsequently, cell proliferation was measured by the bromo-deoxyuridine (BrdU) incorporation assay.

Test [3] concerns MDA-MB-231 cells. Nature of the test: BrdU cell proliferation assay, MDA-MB-231 cells. The note with it: for inhibition of MDA-MB-231 cell proliferation (BrdU): Triacsin C 0.01-0.10 M and/or doxorubicin 0.025 μM or paclitaxel 0.1 μM, 96 h; for amount used in combination relative to the maximum effective dose when applied alone (same inhibitory effect) / dosage used in combination therapy relative to the minimum dose that produces a significant inhibition when administered alone: combination therapy; for dosage used in combination therapy relative to the minimum dose that produces a significant inhibition when administered alone: Triacsin C: in cell culture. The protocol:
Subsequently, cell proliferation was measured by BrdU incorporation assay. Data arc presented as inhibition of cell proliferation compared to control cells. White bars indicate single inhibitor treatment while grey bars indicate combined inhibitor treatment.
MDA-MB-231 cells were plated as described in FIG. 3 and then incubated with Triacsin C ([…]) and/or A. doxorubicin (0.025 μM), B. paclitaxel (0.1 μM) for 96 h. Subsequently, cell proliferation was measured by BrdU incorporation assay. Data are presented as inhibition of cell proliferation compared to control cells. White bars indicate single inhibitor treatment while black bars indicate combined inhibitor treatment.
as §2
MBA-MB-231 cells were plated at a density of 4000 cells/well in 96-well plates with 10% FBS-supplemented D-MEM medium and allowed to adhere overnight at 37° C. in a humidified, 5% CO2 atmosphere. The medium was then changed to serum-free medium. […] Subsequently, cell proliferation was measured by the bromo-deoxvuridine (BrdU) incorporation assay.
MDA-MB-231 cells were plated at a density of 4000 cells/well in 96-well plates with 10% FBS-supplemented D-MEM medium and allowed to adhere overnight at 37° C. in a humidified, 5% CO2 atmosphere. The medium was then changed to serum-free medium. […] Subsequently, cell proliferation was measured by the bromo-deoxyuridine (BrdU) incorporation assay.
MBA-MB-231 cells were plated at a density of 4000 cells/well in 96-well plates with 10% FBS-supplemented D-MEM medium and allowed to adhere overnight at 37° C. in a humidified, 5% CO2 atmosphere. The medium was then changed to serum-free medium. After 24 h, the cells were switched to 10% FBS-supplemented D-MEM medium and incubated with doxorubicin and/or Triacsin C for 96 h. Subsequently, cell proliferation was measured by the bromo-deoxyuridine (BrdU) incorporation assay.
MDA-MB-231 cells were plated at a density of 4000 cells/well in 96-well plates with 10% FBS-supplemented D-MEM medium and allowed to adhere overnight at 37° C. m a humidified, 5% CO2 atmosphere. The medium was then changed to serum-free medium. After 24 h. the cells were switched to 10% FBS-supplemented D-MEM medium and incubated with paclitaxel and/or Triacsin C for 96 h. Subsequently, cell proliferation was measured by the bromo-deoxvuridine (BrdU) incorporation assay.

Test [4] relates to MDA-MB-231 cells. Nature of the test: BrdU cell proliferation assay, MDA-MB-231 cells. The note with it: rosiglitazone 20 μM and/or doxorubicin 0.025 μM or paclitaxel 0.5 μM; 96 h.
The next test concerns ABCC8. Nature of the test: Western blot of ABCC8 in MDA-MB-231 cells after ACSL4 inhibition. The conditions noted are these: Triacsin C 1 uM or rosiglitazone 100 uM, 48 h. An excerpt: (§3) A) MDA-MB-231 cells were transfected with the pSUPER.retro plasmid containing a shRNA targeted to ACSL4 (shRNA-ACSL4) or an empty plasmid (mock) as previously described ((Maloberti P. M. et al., 2010, supra).
(§4) One month post selection, whole cell extracts were obtained and analyzed by Western blot as previously described using the indicated antibodies. […] Forty-eight hours post-treatment, whole cell extracts were obtained and analyzed by Western blot as previously described using the indicated antibodies. Representative blots (upper panels) and integrated optical density of protein levels (lower panels) quantified and normalized with the corresponding 1-tubulin signal are shown.
(§5) J Biol Chem 2001; 276(27):24667-24673).
(§6) MDA-MB-231 cells were seeded the day before and grown up to 80% confluence. […] The empty vector was used as control. Transfection efficiency was estimated by counting fluorescent cells transfected with the pRc/CMVi plasmid containing the enhanced form of green fluorescent protein [Maloberti et al.; 2010].

Another test relates to ABCC4. Description: Western blot of ABCC4 in MDA-MB-231 cells after ACSL4 inhibition. The note with it: Triacsin C 1 uM or rosiglitazone 100 uM, 48 h.
Source text: as §3, §4, §5, §6
On the technique in general: Immunoblotting shows a protein as a band on a membrane.

The test system of a further test is ABCG2. Nature of the test: Western blot of ABCG2 in MDA-MB-231 cells after ACSL4 inhibition. The note with it: Triacsin C 1 uM or rosiglitazone 100 uM, 48 h.
Source text: as §3, §4, §5, §6

Setting [5] is: MCF-7 Tet-Off/ACSL4 cells, doxorubicin 0.025, 0.050, 0.100 μM or paclitaxel 0.1, 0.2, 0.5 μM, 96 h.
Where [6] appears, read: doxycycline-treated MCF-7 Tet-Off/ACSL4 cells, doxorubicin 0.025-0.100 μM or paclitaxel 0.1-0.5 μM.

For the molecule `CC(=O)O[C@H]1C(=O)[C@@]2(C)[C@H]([C@H](OC(=O)c3ccccc3)[C@]3(O)C[C@H](OC(=O)[C@H](O)[C@@H](NC(=O)c4ccccc4)c4ccccc4)C(C)=C1C3(C)C)[C@]1(OC(C)=O)CO[C@@H]1C[C@@H]2O` [paclitaxel], the “inhibition of cell proliferation (BrdU)” value is listed as “inhibited proliferation” in test [1], “little or no effect” in test [2] (setting [5]) and “significantly increased inhibition of cell proliferation” in test [2] (setting [6]). Further, the “inhibition of MDA-MB-231 cell proliferation (BrdU)” value with MDA-MB-231 cells [3] and with MDA-MB-231 cells [4] was “very little effect” throughout. Moreover, the “amount used in combination relative to the maximum effective dose when applied alone (same inhibitory effect)” value with MDA-MB-231 cells [3] came out at 5 times lower. Further, in the test with MDA-MB-231 cells [3], the “dosage used in combination therapy relative to the minimum dose that produces a significant inhibition when administered alone” value is recorded as “half”.
For `COc1cccc2c1C(=O)c1c(O)c3c(c(O)c1C2=O)C[C@@](O)(C(=O)CO)C[C@@H]3O[C@H]1C[C@H](N)[C@H](O)[C@H](C)O1` [doxorubicin], the “inhibition of cell proliferation (BrdU)” value is “inhibited proliferation” in test [1], “very little or no effect” in test [2] (setting [5]) and “significantly increased inhibition of cell proliferation” in test [2] (setting [6]). For the same molecule, the “inhibition of MDA-MB-231 cell proliferation (BrdU)” value in the test on MDA-MB-231 cells [3] and in the test on MDA-MB-231 cells [4] was “very little effect” throughout. For the same molecule, the “amount used in combination relative to the maximum effective dose when applied alone (same inhibitory effect)” value in the test with MDA-MB-231 cells [3] turned out to be 12 times lower. In addition, in the test with MDA-MB-231 cells [3], the “dosage used in combination therapy relative to the minimum dose that produces a significant inhibition when administered alone” value came out at 2.6 times lower.
For `CCC/C=C/C/C=C/C=C/C=NNN=O` [Triacsin C, N-(((2E,4E,7E)-undeca-2,4,7-trienylidene)amino)nitrous amide], the ABCC8 protein levels result in the test on ABCC8 is on record as “markedly decreased”. For the same molecule, in the test with MDA-MB-231 cells [3], the “inhibition of MDA-MB-231 cell proliferation (BrdU)” value was “very little effect” and the “dosage used in combination therapy relative to the minimum dose that produces a significant inhibition when administered alone” value is reported as 5 times lower. Besides, the ABCC4 protein levels result in the test with ABCC4 is listed as “markedly decreased”. For the same molecule, the ABCG2 protein levels entry in the test on ABCG2 is listed as “markedly decreased”.
